Key:
Type in all cases: functional
Lepidium sativum [1] = assay: Inhibition of root growth of Lepidium sativum at 1 ppm relative to untreated control; conditions: read-out: GI
Lepidium sativum [2] = assay: Inhibition of germination of Lepidium sativum at 100 ppm relative to untreated control
Lepidium sativum [3] = assay: Inhibition of root growth of Lepidium sativum at 100 ppm relative to untreated control; conditions: read-out: GI
Lepidium sativum [4] = assay: Inhibition of germination of Lepidium sativum at 10 ppm relative to untreated control
Lepidium sativum [5] = assay: Inhibition of root growth of Lepidium sativum at 0.38 microM relative to untreated control; conditions: read-out: GI
Lepidium sativum [6] = assay: Inhibition of root growth of Lepidium sativum at 3.8 microM relative to untreated control; conditions: read-out: GI
Lepidium sativum [7] = assay: Inhibition of root growth of Lepidium sativum at 1.1 microM relative to untreated control; conditions: read-out: GI

CCOC(=O)CON1C(=O)c2ccccc2C1=O
inhibition of growth at 1 ppm (Lepidium sativum [1]): 0%
inhibition at 100 ppm (Lepidium sativum [2]): 100%
inhibition of growth at 100 ppm (Lepidium sativum [3]): 100%
inhibition at 10 ppm (Lepidium sativum [4]): 0%

CCOC(=O)[C@@H](C)ON1C(=O)c2ccccc2C1=O
inhibition of growth at 0.38 µM (Lepidium sativum [5]): 0%
inhibition of growth at 3.8 µM (Lepidium sativum [6]): 14%
inhibition of growth at 1.1 µM (Lepidium sativum [7]): 5%

CCCCCOC(=O)C(C)ON1C(=O)c2ccccc2C1=O (configuration not stated)
inhibition of growth at 1 ppm (Lepidium sativum [1]): 64%

CCOC(=O)C(C)ON1C(=O)c2ccccc2C1=O (configuration not stated)
inhibition of growth at 1 ppm (Lepidium sativum [1]): 68%
inhibition at 100 ppm (Lepidium sativum [2]): 100%
inhibition of growth at 100 ppm (Lepidium sativum [3]): 100%
inhibition at 10 ppm (Lepidium sativum [4]): 0%

CCOC(=O)[C@H](C)ON1C(=O)c2ccccc2C1=O
inhibition of growth at 0.38 µM (Lepidium sativum [5]): 35%
inhibition of growth at 3.8 µM (Lepidium sativum [6]): 72%
inhibition of growth at 1.1 µM (Lepidium sativum [7]): 49%

CC(ON1C(=O)c2ccccc2C1=O)C(=O)OC(C)(C)C (configuration not stated)
inhibition of growth at 1 ppm (Lepidium sativum [1]): 1%

CCC(C)OC(=O)C(C)ON1C(=O)c2ccccc2C1=O (configuration not stated)
inhibition of growth at 1 ppm (Lepidium sativum [1]): 42%

CCCOC(=O)C(C)ON1C(=O)c2ccccc2C1=O (configuration not stated)
inhibition of growth at 1 ppm (Lepidium sativum [1]): 64%

CC(C)OC(=O)C(C)ON1C(=O)c2ccccc2C1=O (configuration not stated)
inhibition of growth at 1 ppm (Lepidium sativum [1]): 51%

CCCCOC(=O)C(C)ON1C(=O)c2ccccc2C1=O (configuration not stated)
inhibition of growth at 1 ppm (Lepidium sativum [1]): 59%

CCOC(=O)C(Cc1ccccc1)ON1C(=O)c2ccccc2C1=O (configuration not stated)
inhibition of growth at 1 ppm (Lepidium sativum [1]): 0%
inhibition at 100 ppm (Lepidium sativum [2]): 0%
inhibition of growth at 100 ppm (Lepidium sativum [3]): 70%

CCCC(C)ON1C(=O)c2ccccc2C1=O (configuration not stated)
inhibition of growth at 1 ppm (Lepidium sativum [1]): 0%
inhibition at 100 ppm (Lepidium sativum [2]): 0%
inhibition of growth at 100 ppm (Lepidium sativum [3]): 56%

CCOC(=O)C(C)CN1C(=O)c2ccccc2C1=O (configuration not stated)
inhibition of growth at 1 ppm (Lepidium sativum [1]): 0%
inhibition at 100 ppm (Lepidium sativum [2]): 0%
inhibition of growth at 100 ppm (Lepidium sativum [3]): 41%

COC(=O)C(C)ON1C(=O)c2ccccc2C1=O (configuration not stated)
inhibition of growth at 1 ppm (Lepidium sativum [1]): 64%

CCCCCCC(ON1C(=O)c2ccccc2C1=O)C(=O)OCC (configuration not stated)
inhibition of growth at 1 ppm (Lepidium sativum [1]): 0%
inhibition at 100 ppm (Lepidium sativum [2]): 0%
inhibition of growth at 100 ppm (Lepidium sativum [3]): 72%

CCOC(=O)C(ON1C(=O)c2ccccc2C1=O)c1ccccc1 (configuration not stated)
inhibition of growth at 1 ppm (Lepidium sativum [1]): 0%
inhibition at 100 ppm (Lepidium sativum [2]): 0%
inhibition of growth at 100 ppm (Lepidium sativum [3]): 60%

CCOC(=O)C(C)(C)ON1C(=O)c2ccccc2C1=O
inhibition of growth at 1 ppm (Lepidium sativum [1]): 0%
inhibition at 100 ppm (Lepidium sativum [2]): 60%
inhibition of growth at 100 ppm (Lepidium sativum [3]): 95%
inhibition at 10 ppm (Lepidium sativum [4]): 0%

CCOC(=O)C(CC)ON1C(=O)c2ccccc2C1=O (configuration not stated)
inhibition of growth at 1 ppm (Lepidium sativum [1]): 0%
inhibition at 100 ppm (Lepidium sativum [2]): 80%
inhibition of growth at 100 ppm (Lepidium sativum [3]): 94%
inhibition at 10 ppm (Lepidium sativum [4]): 0%

CCOC(=O)C(C)ON1C(=O)c2ccccc2C1=O (racemic)
inhibition of growth at 0.38 µM (Lepidium sativum [5]): 14%
inhibition of growth at 3.8 µM (Lepidium sativum [6]): 68%
inhibition of growth at 1.1 µM (Lepidium sativum [7]): 33%
